Test results: paper PMC8713167, “New Insights into the Structure–Activity Relationship and Neuroprotective Profile of Benzodiazepinone Derivatives of Neurounina-1 as Modulators of the Na^+/Ca^2+ Exchanger Isoforms” (Journal of Medicinal Chemistry, 2021)

Assays:
[1] = molecular target: T1, NCX1 (Canis lupus familiaris, UniProt P23685); experiment: High-throughput screening of NCX1 reverse mode, Fluo-4-loaded BHK-NCX1 cells, Na+-free pulse; assay type: cell-based, dog; conditions: for Activity on NCX (SAR discussion, in words): NCX1/NCX3 reverse-mode screening; for Fluo-experiments on BHK-NCX1: NCX1 reverse mode, Na+-free, CTL (100), concentration not given (10 nM and 10 μM screened)
T1 construct: expressed in transfected cells; host or cells: BHK (baby hamster kidney) cells, stably transfected

[2] = molecular target: T2, NCX3 (Rattus norvegicus, UniProt P70549); experiment: High-throughput screening of NCX3 reverse mode, Fluo-4-loaded BHK-NCX3 cells, Na+-free pulse; assay type: cell-based; conditions: CTL (100), concentration not given (10 nM and 10 μM screened)
T2 construct: expressed in transfected cells; host or cells: BHK (baby hamster kidney) cells, stably transfected
T2 sequence (P70549 31-927): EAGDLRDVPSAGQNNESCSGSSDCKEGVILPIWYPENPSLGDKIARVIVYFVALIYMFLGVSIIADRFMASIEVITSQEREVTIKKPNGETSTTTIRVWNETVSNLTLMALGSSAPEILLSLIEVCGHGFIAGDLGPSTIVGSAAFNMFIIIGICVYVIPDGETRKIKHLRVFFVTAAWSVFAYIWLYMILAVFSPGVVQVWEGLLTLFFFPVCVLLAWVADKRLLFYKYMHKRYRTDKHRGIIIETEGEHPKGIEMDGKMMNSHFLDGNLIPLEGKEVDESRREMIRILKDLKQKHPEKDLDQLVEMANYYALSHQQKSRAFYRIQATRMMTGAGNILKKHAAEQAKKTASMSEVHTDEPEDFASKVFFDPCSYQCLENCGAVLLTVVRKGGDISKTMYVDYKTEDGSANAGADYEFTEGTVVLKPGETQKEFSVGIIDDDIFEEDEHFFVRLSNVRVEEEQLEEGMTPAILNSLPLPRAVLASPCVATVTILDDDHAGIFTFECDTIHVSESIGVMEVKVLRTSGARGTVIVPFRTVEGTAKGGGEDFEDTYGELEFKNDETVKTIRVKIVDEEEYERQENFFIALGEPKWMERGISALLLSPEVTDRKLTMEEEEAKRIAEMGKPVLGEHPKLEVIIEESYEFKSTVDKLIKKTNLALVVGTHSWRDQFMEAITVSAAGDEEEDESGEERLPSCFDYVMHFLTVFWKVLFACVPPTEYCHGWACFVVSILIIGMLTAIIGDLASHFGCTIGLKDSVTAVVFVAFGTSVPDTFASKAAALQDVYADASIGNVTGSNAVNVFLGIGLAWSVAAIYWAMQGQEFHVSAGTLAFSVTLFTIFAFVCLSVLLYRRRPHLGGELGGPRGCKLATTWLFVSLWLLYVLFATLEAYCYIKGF

| SMILES | Activity on NCX (SAR discussion, in words) [1] | Fluo-experiments on BHK-NCX1 [1] | Fluo-experiments on BHK-NCX3 [2] | melting point |
| --- | --- | --- | --- | --- |
| O=C1CN=C(c2ccccc2)c2cc(Cl)ccc2N1CN1CCCC1 [Compound 2, 7-Chloro-5-phenyl-1-(pyrrolidin-1-ylmethyl)-1H-benzo[e][1,4]diazepin-2(3H)-one] | inactivity | 100 | 100 |  |
| O=C1CN=C(c2ccccc2)c2cc([N+](=O)[O-])ccc2N1CN1CCCCC1 [Compound 3, 7-Nitro-5-phenyl-1-(piperidin-1-ylmethyl)-1H-benzo[e][1,4]diazepin-2(3H)-one] | complete loss of activity | 100 | 100 |  |
| O=C1CN=C(c2ccccc2)c2cc([N+](=O)[O-])ccc2N1CCN1CCCCC1 [Compound 5, 7-Nitro-5-phenyl-1-[2-(piperidin-1-yl)ethyl]-1H-benzo[e][1,4]diazepin-2(3H)-one] | inactive | 100 | 100 |  |
| CC1CCCCN1CCN1C(=O)CN=C(c2ccccc2)c2cc([N+](=O)[O-])ccc21 (stereo not drawn) [Compound 6, 1-[2-(2-Methylpiperidin-1-yl)ethyl]-7-nitro-5-phenyl-1H-benzo[e][1,4]diazepin-2(3H)-one] | inactive | 100 | 100 |  |
| CC1CCCN(CCN2C(=O)CN=C(c3ccccc3)c3cc([N+](=O)[O-])ccc32)C1 (stereo not drawn) [Compound 7, 1-[2-(3-Methylpiperidin-1-yl)ethyl]-7-nitro-5-phenyl-1H-benzo[e][1,4]diazepin-2(3H)-one] | inactive | 100 | 100 |  |
| O=C1CN=C(c2ccccc2)c2cc([N+](=O)[O-])ccc2N1CCn1ccnc1 [Compound 8, 1-[2-(1H-Imidazole-1-yl)ethyl]-7-nitro-5-phenyl-1H-benzo[e][1,4]diazepin-2(3H)-one] | complete loss of activity | 100 | 100 |  |
| Cc1nccn1CCN1C(=O)CN=C(c2ccccc2)c2cc([N+](=O)[O-])ccc21 [Compound 9, 1-[2-(2-Methyl-1H-imidazole-1-yl)ethyl]-7-nitro-5-phenyl-1H-benzo[e][1,4]diazepin-2(3H)-one] |  | 100 | 100 |  |
| O=C1CN=C(c2ccccc2)c2cc([N+](=O)[O-])ccc2N1CCN1CCN(c2ccccc2)CC1 [Compound 10, 7-Nitro-5-phenyl-1-[2-(4-phenylpiperazin-1-yl)ethyl]-1H-benzo[e][1,4]diazepin-2(3H)-one] |  | 100 | 100 |  |
| O=C1CN=C(c2ccccc2)c2cc([N+](=O)[O-])ccc2N1CCN1CCN(c2cccc3ccccc23)CC1 [Compound 11, 1-{2-[4-(Naphthalen-1-yl)piperazin-1-yl]ethyl}-7-nitro-5-phenyl-1H-benzo[e][1,4]diazepin-2(3H)-one] |  | 100 | 100 |  |
| O=C(CN1C(=O)CN=C(c2ccccc2)c2cc([N+](=O)[O-])ccc21)N1CCCC1 [Compound 12, 7-Nitro-1-[2-Oxo-2-(pyrrolidin-1-yl)ethyl]-5-phenyl-1H-benzo[e][1,4]diazepin-2(3H)-one] |  | 100 | 100 |  |
| O=C(CN1C(=O)CN=C(c2ccccc2)c2cc([N+](=O)[O-])ccc21)N1CCCCC1 [Compound 13, 7-Nitro-1-[2-Oxo-2-(piperidin-1-yl)ethyl]-5-phenyl-1H-benzo[e][1,4]diazepin-2(3H)-one] |  | 100 | 100 |  |
| CC1CCCN(C(=O)CN2C(=O)CN=C(c3ccccc3)c3cc([N+](=O)[O-])ccc32)C1 (stereo not drawn) [Compound 15, 1-3-[(3-Methylpiperidin-1-yl)-2-oxoethyl]-7-nitro-5-phenyl-1H-benzo[e][1,4]-diazepin-2(3H)-one] |  | 100 | 100 |  |
| O=C1CN=C(c2ccccc2)c2cc([N+](=O)[O-])ccc2N1CC(=O)n1ccnc1 [Compound 16, 1-[2-(1H-Imidazole-1-yl)-2-oxoethyl]-7-nitro-5-phenyl-1H-benzo[e][1,4]diazepin-2(3H)-one] |  | 100 | 100 | 120 to 121 °C |
| Cc1nccn1C(=O)CN1C(=O)CN=C(c2ccccc2)c2cc([N+](=O)[O-])ccc21 [Compound 17, 1-[2-(2-Methyl-1H-imidazole-1-yl)-2-oxoethyl]-7-nitro-5-phenyl-1H-benzo[e][1,4]diazepin-2(3H)-one] |  | 100 | 100 |  |
| O=C(CN1C(=O)CN=C(c2ccccc2)c2cc([N+](=O)[O-])ccc21)N1CCN(c2ccccc2)CC1 [Compound 18, 7-Nitro-1-[2-Oxo-2-(4-phenylpiperazin-1-yl)ethyl]-5-phenyl-1H-benzo[e][1,4]diazepin-2(3H)-one] |  | 100 | 100 |  |
| O=C(CN1C(=O)CN=C(c2ccccc2)c2cc([N+](=O)[O-])ccc21)N1CCN(c2cccc3ccccc23)CC1 [Compound 19, 1-{2-[4-(Naphthalen-1-yl)piperazin-1-yl]-2-oxoethyl}-7-nitro-5-phenyl-1H-benzo[e][1,4]-diazepin-2(3H)-one] |  | 100 | 100 |  |
